Tests used:
[1] = system: miR-34a; test: qRT-PCR of primary and mature miR-34a in HCC cells; assay type: cell-based, human; details: for increased miR-34a level by Rubone after p53 knockdown: 2 μM siRNAs targeting p53, 10 μM Rubone; for primary and mature miR-34a levels: 10 μM, 48 h
Experimental: Total RNA from cell cultures and HCC xenograft tumors were extracted using Trizol (Invitrogen) according to manufacturer's protocols. Total RNAs were dissolved into nuclease-free ddH2O. For protein extraction, cells and HCC xenograft tumors were lysed in 1×RIPA buffer with 1 mM PMSF and 1× complete protease inhibitor cocktail (Roche, Indianapolis, Ind.). Both RNA and protein were stored at −80° C.
(§1) Total RNA was reversely transcribed into cDNAs using High Capacity cDNA Reverse Transcription Kit (Applied Biosystems, Foster city, CA, USA) and nude RT kit (Invitrogen) individually. qRT-PCR was performed using SYBR Green PCR master mix (TaKaRa, Dalian, China). GAPDH was used as an endogenous control. For measuring miR-34a expression level, qPCR was performed by using SYBR Green PCR master mixture (Invitrogen) and U6 was used as the internal control. All samples were normalized to internal controls and fold changes were calculated by relative quantification (2^−ΔΔct).

[2] = system: Huh7 cells; test: MTT cell viability assay, Huh7; assay type: cell-based, human; details: Huh7, 10 μM
Experimental: (§2) Cell viability was measured by 3-(4,5-Dimethylthiazol-2-yl)-2,5-diphenyltetrazolium bromide (MTT) assay. 1×10^3 Cells were seeded in triplicate on a 96 well plate and were allowed to grow for indicated time points. At each time point a set of cells were incubated with 0.5 mg/ml MTT diluted in 1×PBS. After 2 to 4 h incubation, the MTT solution was removed. The insoluble MTT was dissolved in DMSO. Absorbance at 570 nm was measured by an ELISA plate reader.

[3] = system: Bel-7404 cells; test: MTT cell viability assay, Bel-7404; assay type: cell-based, human
Experimental: as §2

[4] = system: non-tumorigenic human hepatocyte cell line MIHA; test: MTT cell viability assay, MIHA; assay type: cell-based; details: different concentrations and time points
Experimental: as §2

[5] = system: human umbilical vein endothelial cells (HUVECs); test: In vitro tube formation assay; assay type: cell-based; details: ECM gel, 4 h
Experimental: The in vitro tube formation assay with human umbilical vein endothelial cells (HUVECs) was performed using the in vitro Angiogenesis Assay Kit (Cell Biolabs). HUVECs were plated at the density of 2×10^4/well and treated with Dimethyl sulfoxide (DMSO) or Rubone ([…] or 2 μM) respectively for 24 h. HUVECs were then seeded onto the ECM gel surface and cultured for 4 h. Then, 100 μl 1× Staining Solution was applied to each well and incubated 30 min at 37° C. and images were captured with an Olympus SC35 camera (Olympus America, Inc., Melville, N.Y.). Tube formation was quantified by counting the number of branching points on each image.

[6] = system: miR-34a promoter; test: miR-34a promoter luciferase activity assay in HCC cells; assay type: cell-based, human; details: 10 μM
Experimental: The pMIR-REPORT™ luciferase plasmid (1 μg; Ambion) was sequentially double digested with Sac I and Hind III (10 units each, 50 μL reaction; NEB) and was gel purified. Double stranded insert DNA encoding the miR-34a binding site was synthesized through standard oligonucleotide synthesis methods. The sequences used were Forward: 5′z […]-3′ (SEQ ID NO:1) and Reverse: 5′: […]-3′ (SEQ ID NO:2). The insert was hybridized (heated to 95° C., and cooled to 4° C. over 30 min, then held at 4° C. for 60 min) and ligated with T4 ligase (200 units, 10 μL reaction, 1:10 vector/insert ratio; NEB) into the digested pMIR-REPORT™ luciferase vector. Positive colonies were selected by PCR colony screens, and the construction of the pMIR-REPORT™-miR-34a vector was confirmed by double enzyme digestion with NheI, MluI and Nhe I, Hind III (NEB). The luciferase reporter vector containing the miR-34a promoter was kindly provided by Prof. Mendell J T from Johns Hopkins University (21).
MiR-34a reporter, the luciferase reporter vector containing miR-34a promoter and the control vectors were transfected into HCC cells 12 h before compound treatment. The Renilla luciferase vector pRL-SV40 was co-transfected as an internal control. HCC cells were then treated with compound for 48-72 h. The luciferase activity was measured by Dual Luciferase Reporter Assay (Promega) with a Wallac VICTOR^3V luminometer. The ratio of firefly luciferase to Renilla expression was calculated for each of the triplicates.

[7] = molecular target: p53 (Homo sapiens, UniProt P04637); test: ChIP assay, p53 occupancy on miR-34a promoter; assay type: cell-based; details: HepG2 cells, 10 μM
Experimental: (§3) ChIP assay was performed as described before (26). Cross-linked chromatin were incubated overnight with anti-H3 (Cat #: 9003, Cell Signaling Technology), IgG (Cat #: 9003, Cell Signaling Technology), p53 (Cat #: sc-106, Santa Cruz, Cambridge, Mass.). The precipitated DNA were quantitated absolutely by real-time PCR and normalized by respective 2% input.

[8] = system: p53; test: ChIP assay, p53 occupancy on miR-34a promoter; assay type: cell-based, human; details: Bel-7404 cells, 10 μM
Experimental: as §3

[9] = system: p53; test: p53 expression by RT-PCR in HCC cells; assay type: cell-based, human; details: HepG2, Huh7 and Bel-7404 cells, 10 μM (FIG. 9A)
Experimental: as §1

[10] = HepG2 xenograft model, survival, body weight and side effects; details: for Body weight (g) initial / Body weight (g) end: mean (95% CI); for Body weight (g) end: end of 24 d treatment
Experimental: 5×10^6 HepG2 cells were suspended in 100 μl serum-free medium and subcutaneously (s.c.) inoculated into the dorsal flanks of nude mice. When tumors reached 5-10 mm in diameter, mice were randomly divided into 4 groups (n=5). […] Vehicle alone and Sorafenib were used as the negative and positive control respectively. Tumor volumes and body weight were measured once every two days. Tumor volume was calculated as [(Length×Width×Height)±2]. Treatment was continued for 24 d. Finally, all mice were sacrificed and tumors were excised. Tumor weight was recorded.

Sequence of p53 (Homo sapiens, UniProt P04637) (P04637 whole entry): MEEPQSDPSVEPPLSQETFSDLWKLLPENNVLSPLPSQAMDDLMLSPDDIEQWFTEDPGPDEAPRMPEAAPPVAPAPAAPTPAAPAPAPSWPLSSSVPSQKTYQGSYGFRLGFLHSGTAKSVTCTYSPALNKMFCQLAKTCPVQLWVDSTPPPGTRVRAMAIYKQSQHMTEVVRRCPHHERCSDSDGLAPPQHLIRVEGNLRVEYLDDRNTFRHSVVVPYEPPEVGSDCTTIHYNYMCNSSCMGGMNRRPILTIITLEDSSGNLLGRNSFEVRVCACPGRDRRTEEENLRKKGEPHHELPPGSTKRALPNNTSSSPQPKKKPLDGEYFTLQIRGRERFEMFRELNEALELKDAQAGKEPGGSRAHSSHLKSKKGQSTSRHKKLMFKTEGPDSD

For `COc1cc(O)c(C(=O)/C=C/c2cc(OC)c(OC)cc2OC)c(OC)c1` [Rubone, 2′-Hydroxy-2,4,4′,5,6′-pentamethoxychalcone], the “increased miR-34a level by Rubone after p53 knockdown” value ([1]; Bel-7404 cells) was “significantly reversed by p53 knockdown”, the “primary and mature miR-34a levels” value ([1]; Hep3B cells (p53 deleted)) was “no change” and the “primary and mature miR-34a levels” value ([1]; HepG2 cells (wild-type p53)) was “significantly increased”. For the same molecule, the “increased miR-34a level by Rubone after p53 knockdown” value ([1]; HepG2 cells) was “significantly reversed by p53 knockdown”, the “primary and mature miR-34a levels” value ([1]; Huh7 cells (mutant p53)) was “significantly increased” and the “cell growth (MTT)” value [2] was “significantly inhibited the growth”. For the same molecule, the “growth inhibitory effect of Rubone after p53 knockdown (MTT)” value ([3]; Bel-7404, 2 μM siRNAs targeting p53, 10 μM Rubone) was “significantly reversed by knocking down p53”, the “cell growth (MTT)” value ([3]; Bel-7404, 10 μM) was “significantly inhibited the growth” and the “effect of miR-34a inhibitors on growth inhibition by Rubone (MTT)” value ([3]; Bel-7404, 10 μM Rubone with 2 μM miR-34a inhibitors, 72 h) was “reversed the growth inhibitory effect”. For the same molecule, the “effect of miR-34a mimics on chemosensitivity to Rubone (MTT)” value ([3]; Bel-7404, 10 μM Rubone with 2 μM miR-34a mimics, 72 h) was “enhanced the chemosensitivity”, the “growth rate (MTT)” value [4] was “little changes in the growth rate” and the tube score ([5]; 1 μM, control group 42.33, p=0.0036) was 3.667. For the same molecule, the tube formation ([5]; 2 μM) was “no tubes formed at all”, the miR-34a promoter activity ([6]; Bel-7404 (p53 mutant)) was “increased” and the miR-34a promoter activity ([6]; Hep3B (p53 deletion)) was “no change”. For the same molecule, the miR-34a promoter activity ([6]; HepG2 (p53 wild type)) was “increased”, the “p53 occupancy on miR-34a promoter” value [7] was “significantly increased p53 occupancy” and the “p53 occupancy on miR-34a promoter” value [8] was “significantly increased p53 occupancy”. The p53 expression [9] was “not affected”, the “Body weight (g) initial” value ([10]; 20 mg/kg group) was 19.60(95% CI = 18.49 − 20.71)/ g and the “Body weight (g) end” value ([10]; 20 mg/kg) was 23.60(95% CI = 21.93 − 25.27) g. The “Mice survival (n) initial/end” value ([10]; 20 mg/kg, gavage once every two days, 24 d) was 5/5, the “Body weight (g) initial” value ([10]; 50 mg/kg group) was 20.00(95% CI = 20.00 − 20.00)/ g and the “Body weight (g) end” value ([10]; 50 mg/kg) was 23.60(95% CI = 21.03 − 26.17) g. The “Mice survival (n) initial/end” value ([10]; 50 mg/kg, gavage once every two days, 24 d) was 5/5 and the “side effect at the end of experiment” value ([10]; tumor bearing nude mice, gavage once every two days, 24 d) was “No obvious side effect”.
